Assay results from patent publication US20230203064A1, “TRICYCLIC COMPOUNDS AS INHIBITORS OF NLRP3” (JANSSEN PHARMACEUTICA NV, priority 2020, published 2023).

Tests used:
TNF = test: PBMC assay: TNF cytokine level after LPS stimulation; assay type: cell-based; conditions: human PBMCs, 30 min pre-incubation, 100 ng/ml LPS for 6 hrs, supernatant, MSD technology
Description: (§1) Peripheral venous blood was collected from healthy individuals and human peripheral blood mononuclear cells (PBMCs) were isolated from blood by Ficoll-Histopaque (Sigma-Aldrich, A0561) density gradient centrifugation. After isolation, PBMCs were stored in liquid nitrogen for later use. Upon thawing, PBMC cell viability was determined in growth medium (RPMI media supplemented with 10% fetal bovine serum, 1% Pen-Strep and 1% L-glutamine). Compounds were spotted in a 1:3 serial dilution in DMSO and diluted to the final concentration in 30 μl medium in 96 well plates (Falcon, 353072). PBMCs were added at a density of 7.5×10^4 cells per well and incubated for 30 min in a 5% CO2 incubator at 37° C. LPS stimulation was performed by addition of 100 ng/ml LPS (final concentration, Invivogen, tirl-smips) for 6 hrs followed by collection of cellular supernatant and the analysis of IL-1β (μM) and TNF cytokines levels (μM) via MSD technology according to manufacturers' guidelines (MSD, K151A0H).
The IC50 values (for IL-1β) and EC50 values (TNF) were obtained on compounds of the invention/examples, and are depicted in the following table: […]

IL-1β = test: PBMC assay: IL-1β release after LPS stimulation (NLRP3 inflammasome activity); assay type: cell-based; conditions: human PBMCs, 30 min pre-incubation, 100 ng/ml LPS for 6 hrs, supernatant, MSD technology
Description: as §1

EC50 (TNF) [nM] | IC50 (IL-1β) [nM] | melting point [°C] | SMILES
> 10000 | 660 | – | COCCN(C)c1nn(CC(=O)Nc2ccncn2)c(=O)c2cc3sccc3n12 [Final Cpd 3]
8560 | 360 | 214.8 | CCN(C)c1nn(CC(=O)Nc2ccncn2)c(=O)c2cc3scnc3n12 [Final Cpd 1, 2-[12-[ethyl(methyl)amino]-9-oxo-5-thia-1,3,10,11-tetrazatricyclo-[6.4.0.02,6]dodeca-2(6),3,7,11-tetraen-10-yl]-N-pyrimidin-4-yl-acetamide]
> 10000 | 270 | 263.5 | CNc1nn(CC(=O)Nc2ccncn2)c(=O)c2cc3scnc3n12 [Final Cpd 10]
> 10000 | 320 | – | CCCN(C)c1nn(CC(=O)Nc2ccncn2)c(=O)c2cc3sccc3n12 [Final Cpd 4]
> 10000 | 250 | – | CCN(C)c1nn(CC(=O)Nc2ccncn2)c(=O)c2cc3sccc3n12 [Final Cpd 6]
6970 | 20 | – | CN(C)c1nn(CC(=O)Nc2ccc3nncn3n2)c(=O)c2cc3sc(Cl)cc3n12 [Final Cpd 12, N-([1,2,4]triazolo[4,3-b]pyridazin-6-yl)-2-(2-chloro-5-(dimethylamino)-8-oxothieno[2′,3′:4,5]pyrrolo[1,2-d][1,2,4]triazin-7(8H)-yl)acetamide]
> 10000 | < 120 | 221.7 | CN(C)c1nn(CC(=O)N[C@H]2C[C@@](C)(O)C2)c(=O)c2cc3scnc3n12 [Final Cpd 9]
> 10000 | 210 | – | CNc1nn(CC(=O)Nc2ccncn2)c(=O)c2cc3sccc3n12 [Final Cpd 5]
> 10000 | – | – | CN(C)c1nn(CC(=O)N[C@H]2C[C@@](C)(O)C2)c(=O)c2cc3sccc3n12 [Final Cpd 11, 2-(5-(dimethylamino)-8-oxothieno[2′,3′:4,5]pyrrolo[1,2-d][1,2,4]triazin-7(8H)-yl)-N-((1s,3s)-3-hydroxy-3-methylcyclobutyl)acetamide]
> 10000 | 280 | 196.7 | CCCN(C)c1nn(CC(=O)Nc2ccncn2)c(=O)c2cc3scnc3n12 [Final Cpd 8]
> 10000 | < 120 | – | CN(C)c1nn(CC(=O)Nc2ccncn2)c(=O)c2cc3sccc3n12 [Final Cpd 7]
> 10000 | < 120 | 248.3 | CN(C)c1nn(CC(=O)Nc2ccncn2)c(=O)c2cc3scnc3n12 [Final Cpd 2]
